# Activity calls are given as the source filed them. How the calls were made is not given here.
# Biological target: Ubiquitin-conjugating enzyme E2 N (Homo sapiens) (UniProt P61088)
# Test: UBE2N binders by NMR, biophysical, purified protein (AID 1552)
# Details: NMR binding to purified UBE2N
# Chain of Ubiquitin-conjugating enzyme E2 N (Homo sapiens) (P61088 whole entry, looked up): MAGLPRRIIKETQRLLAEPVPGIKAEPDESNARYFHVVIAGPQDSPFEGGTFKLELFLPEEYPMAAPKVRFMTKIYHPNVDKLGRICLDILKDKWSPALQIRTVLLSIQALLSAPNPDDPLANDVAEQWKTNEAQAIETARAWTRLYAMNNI
row,Structure (SMILES),Kd
1,CC(C)CCCC(C)[C@H]1CCC2C3CC=C4C[C@@H](O)CC[C@]4(C)C3CC[C@@]21C (some centres undefined),> 4 mM (inactive)
2,Cc1c(/C=N\n2cnnc2)c2ccccc2n1C,> 4 mM (inactive)
3,O=C(O)CC12CC3CC(CC(O)(C3)C1)C2,> 4 mM (inactive)
4,COc1ccc(-c2cc(=O)c3c(O)c(OC)c(O[C@H]4O[C@H](CO[C@@H]5O[C@@H](C)[C@H](O)[C@@H](O)[C@H]5O)[C@@H](O)[C@H](O)[C@H]4O)cc3o2)cc1,> 4 mM (inactive)
5,NCc1cn2ccccc2n1,> 4 mM (inactive)
6,C=CC(C1=CC(=O)C=CC1=O)c1ccccc1 (centres undefined),> 4 mM (inactive)
7,NC(=S)N1CCC(c2ccccc2)=N1,> 4 mM (inactive)
8,COCCn1c(SC)nc2c1c(=O)[nH]c(=O)n2C,> 4 mM (inactive)
9,O=C1Cn2c(nc3ccccc32)N1c1ccccc1F,> 4 mM (inactive)
10,Cn1c(O)c(C=NCC2CCNCC2)c(=O)n(C)c1=O,> 4 mM (inactive)
11,Cc1ccc(CNc2ccc(O)cc2)cc1,> 4 mM (inactive)
12,CC(C)(C)NC(=O)N1CCC(C(N)=O)CC1,> 4 mM (inactive)
13,O=C(NCc1ccccn1)c1ccc(Cl)cc1Cl,> 4 mM (inactive)
14,Cc1ccc2c(c1)CCCN2C(=O)c1c(C)noc1C,> 4 mM (inactive)
15,NC1=NC(=O)/C(=C/c2ccccc2[N+](=O)[O-])S1,> 4 mM (inactive)
16,NC(N)=NOCC[C@H](N)C(=O)O,> 4 mM (inactive)
17,O=C1CNC(=O)N1Cc1ccc(Br)cc1,> 4 mM (inactive)
18,CC(=O)c1c(C)n([O-])c2ccccc2[n+]1=O,> 4 mM (inactive)
19,OCc1ccc(Oc2ccccc2)nc1,> 4 mM (inactive)
20,COc1ccc(NC(=O)c2ccc[n+]([O-])c2)cc1,> 4 mM (inactive)

row,Structure (SMILES),Kd
1,O=C(O)CCC(=O)c1c[nH]c2ccccc12,> 4 mM (inactive)
2,CC(=O)c1cnc2nc(C(F)(F)F)nn2c1C,> 4 mM (inactive)
3,CC(=O)NC(O)C(=O)c1cccs1 (centres undefined),> 4 mM (inactive)
4,COC(=O)c1ccc2nsnc2c1,> 4 mM (inactive)
5,O=C(O)CNC(=O)c1ccc([N+](=O)[O-])cc1,> 4 mM (inactive)
6,COCC(=O)Nc1nc2ccc(C)cc2s1,> 4 mM (inactive)
7,COc1ccc2cc1Oc1ccc(cc1)C[C@H]1c3cc(c(OC)cc3CCN1C)Oc1c(OC)c(OC)cc3c1[C@H](C2)N(C)CC3,> 4 mM (inactive)
8,CSc1nc(=O)[nH]c2c1CCC2,> 4 mM (inactive)
9,O=C(CSc1ccnc(=O)[nH]1)NCc1ccccc1,> 4 mM (inactive)
10,S=C(c1ccc(N2CCOCC2)cc1)N1CCCCC1,> 4 mM (inactive)
11,O=C1C2CC=CCC2C(=O)N1c1ccccc1O (centres undefined),> 4 mM (inactive)
12,COc1nc(C)ccc1-c1noc(-c2ccco2)n1,> 4 mM (inactive)
13,O=S(=O)(N1CCCCC1)n1nnc2ccccc21,> 4 mM (inactive)
14,O=C(c1ccc(Cl)s1)N1CCOCC1,> 4 mM (inactive)
15,O=C(O)CC[N+](=O)[O-],> 4 mM (inactive)
16,OCc1nccn1Cc1ccccc1,> 4 mM (inactive)
17,CCOC(=O)C1CCNCC1,> 4 mM (inactive)
18,C[n+]1ccc(C(=O)[O-])cc1,> 4 mM (inactive)
19,O=C(NCc1cccc(Cl)c1)c1ccco1,> 4 mM (inactive)
20,COCC(=O)Nc1cc2c3c(c1)CCN3C(=O)CC2,> 4 mM (inactive)

row,Structure (SMILES),Kd
1,Cc1csc2nc3ccccc3c(=O)n12,> 4 mM (inactive)
2,C=C(C)C1Cc2c(ccc(C(=O)O)c2O)O1 (centres undefined),> 4 mM (inactive)
3,O=C(O)c1cc(F)cc2c1OCOC2,> 4 mM (inactive)
4,CCN(CC)C(=O)c1n[nH]c(=O)c2ccccc12,> 4 mM (inactive)
5,Cc1cccc(NC(=O)c2ccccc2C(=O)O)c1,> 4 mM (inactive)
6,Cc1ccc(N2C(=O)CCC2=O)cc1,> 4 mM (inactive)
7,O=C(O)c1cccc(N2C(=O)C3CC=CCC3C2=O)c1 (centres undefined),> 4 mM (inactive)
8,CC(=O)c1ccc(NC(=O)c2ocnc2C)cc1,> 4 mM (inactive)
9,OC[C@@H]1CCCN2CCCC[C@H]12,> 4 mM (inactive)
10,C=CC(=O)N1CC2CC(C1)c1cccc(=O)n1C2 (centres undefined),> 4 mM (inactive)
11,CCC1(CC)C(=O)N=C(N)NC1=O,> 4 mM (inactive)
12,Cn1cnc2cc(NC(=O)c3ccco3)ccc21,> 4 mM (inactive)
13,C/C=C/c1ccc2c(c1)OCO2,> 4 mM (inactive)
14,O=C(O)c1cc(O)c2c(c1)C(=O)c1cc(O)cc(O)c1C2=O,> 4 mM (inactive)
15,Cc1cc(C)nc(Nc2n[nH]c(Cc3ccccc3)n2)n1,> 4 mM (inactive)
16,Cc1ccc(-c2c(C)n([O-])c3c([n+]2=O)CCCC3)o1,> 4 mM (inactive)
17,COc1ccccc1NC(=O)C1CCCCC1,> 4 mM (inactive)
18,COC1CC(O[C@H]2CC[C@]3(C=O)C4CC[C@]5(C)C(C6=CC(=O)OC6)CC[C@]5(O)C4CC[C@]3(O)C2)OC(C)C1O (some centres undefined),> 4 mM (inactive)
19,C[C@H]1C(=O)O[C@@H]2CCN3CC=C(COC(=O)[C@](C)(O)[C@]1(C)O)[C@H]23,> 4 mM (inactive)

# From PubChem BioAssay AID1552 (Sanford-Burnham Center for Chemical Genomics, 2009)
